Measurements published in the NIST ThermoML archive (doi:10.1016/j.fluid.2017.06.019).
± gives the expanded uncertainty stated by the source.

Conditions: Coaxial cylinder method

CCC [propane]
thermal conductivity [W/m/K]
Conditions	364.65 K	365.72 K
3306 kPa, Gas	–	0.03402 ± 0.0021
3306 kPa, Liquid	–	0.03402 ± 0.0026
3818 kPa, Gas	0.04192 ± 0.0026	–
3819 kPa, Gas	0.04192 ± 0.0029	–
3820 kPa, Gas	0.04192 ± 0.0029	–
3826 kPa, Gas	0.04799 ± 0.004	–
3827 kPa, Gas	0.05041 ± 0.0043	–
3828 kPa, Gas	0.05375 ± 0.006	–
3829 kPa, Gas	0.05683 ± 0.0063	–
3830 kPa, Gas	0.05989 ± 0.0038	–
3831 kPa, Gas	0.06347 ± 0.004	–
3832 kPa, Gas	0.0673 ± 0.0043	–
3833 kPa, Gas	0.07157 ± 0.0045	–
3834 kPa, Gas	0.0754 ± 0.0048	–
3835 kPa, Gas	0.07969 ± 0.0051	–
3836 kPa, Gas	0.08397 ± 0.0054	–
3837 kPa, Gas	0.08791 ± 0.0056	–
3838 kPa, Gas	0.09202 ± 0.0059	–
3839 kPa, Gas	0.09605 ± 0.0062	–
3840 kPa, Gas	0.1002 ± 0.0065	–
3841 kPa, Gas	0.1044 ± 0.0068	–
3842 kPa, Gas	0.1088 ± 0.0071	–
3843 kPa, Gas	0.1131 ± 0.0075	–
3844 kPa, Gas	0.1173 ± 0.0078	–
3845 kPa, Gas	0.1218 ± 0.0081	–
3846 kPa, Gas	0.1263 ± 0.0085	–
3847 kPa, Gas	0.1307 ± 0.0088	–
3848 kPa, Gas	0.135 ± 0.0092	–
3849 kPa, Gas	0.14 ± 0.0096	–
3850 kPa, Gas	0.1445 ± 0.01	–
3851 kPa, Gas	0.1491 ± 0.01	–
3852 kPa, Gas	0.1538 ± 0.011	–
3853 kPa, Gas	0.1584 ± 0.011	–
3854 kPa, Gas	0.1635 ± 0.012	–
3855 kPa, Gas	0.1693 ± 0.012	–
3856 kPa, Gas	0.1732 ± 0.013	–
3857 kPa, Gas	0.1782 ± 0.013	–
3858 kPa, Gas	0.1831 ± 0.014	–
3859 kPa, Gas	0.1881 ± 0.014	–
3860 kPa, Gas	0.1933 ± 0.015	–
3861 kPa, Gas	0.1983 ± 0.016	–
3862 kPa, Gas	0.2036 ± 0.016	–
3863 kPa, Gas	0.2089 ± 0.017	–
3864 kPa, Gas	0.2141 ± 0.018	–
3865 kPa, Gas	0.2194 ± 0.019	–
3866 kPa, Gas	0.2249 ± 0.016	–
3867 kPa, Gas	0.2303 ± 0.016	–
3868 kPa, Gas	0.2361 ± 0.017	–
3869 kPa, Gas	0.2404 ± 0.017	–
3870 kPa, Liquid	0.2611 ± 0.024	–
3871 kPa, Liquid	0.2548 ± 0.023	–
3872 kPa, Liquid	0.249 ± 0.023	–
3873 kPa, Liquid	0.2424 ± 0.022	–
3874 kPa, Liquid	0.2366 ± 0.021	–
3875 kPa, Liquid	0.2306 ± 0.021	–
3876 kPa, Liquid	0.2246 ± 0.02	–
3877 kPa, Liquid	0.2189 ± 0.02	–
3878 kPa, Liquid	0.2127 ± 0.019	–
3879 kPa, Liquid	0.2068 ± 0.019	–
3880 kPa, Liquid	0.2008 ± 0.018	–
3881 kPa, Liquid	0.1952 ± 0.018	–
3882 kPa, Gas	–	0.04279 ± 0.016
3882 kPa, Liquid	0.1898 ± 0.017	–
3883 kPa, Gas	–	0.04289 ± 0.0095
3883 kPa, Liquid	0.1838 ± 0.017	–
3884 kPa, Gas	–	0.04575 ± 0.0097
3884 kPa, Liquid	0.1778 ± 0.017	–
3885 kPa, Gas	–	0.04607 ± 0.0097
3885 kPa, Liquid	0.1728 ± 0.017	–
3886 kPa, Liquid	0.1668 ± 0.016	–
3887 kPa, Liquid	0.1613 ± 0.015	–
3888 kPa, Liquid	0.1556 ± 0.015	–
3889 kPa, Liquid	0.1503 ± 0.015	–
3890 kPa, Gas	–	0.05157 ± 0.0073
3890 kPa, Liquid	0.1444 ± 0.015	–
3891 kPa, Gas	–	0.05307 ± 0.0068
3891 kPa, Liquid	0.1391 ± 0.015	–
3892 kPa, Gas	–	0.05526 ± 0.0064
3892 kPa, Liquid	0.1337 ± 0.014	–
3893 kPa, Gas	–	0.0573 ± 0.0065
3893 kPa, Liquid	0.1279 ± 0.014	–
3894 kPa, Gas	–	0.05933 ± 0.0062
3894 kPa, Liquid	0.1224 ± 0.013	–
3895 kPa, Gas	–	0.06131 ± 0.0059
3895 kPa, Liquid	0.117 ± 0.013	–
3896 kPa, Gas	–	0.06342 ± 0.0073
3896 kPa, Liquid	0.1115 ± 0.013	–
3897 kPa, Gas	–	0.06568 ± 0.0078
3897 kPa, Liquid	0.1061 ± 0.012	–
3898 kPa, Gas	–	0.06813 ± 0.0077
3898 kPa, Liquid	0.1008 ± 0.012	–
3899 kPa, Gas	–	0.07049 ± 0.0075
3899 kPa, Liquid	0.09527 ± 0.012	–
3900 kPa, Gas	–	0.07276 ± 0.0072
3900 kPa, Liquid	0.08987 ± 0.012	–
3901 kPa, Gas	–	0.07497 ± 0.0069
3901 kPa, Liquid	0.08442 ± 0.012	–
3902 kPa, Gas	–	0.07801 ± 0.0066
3902 kPa, Liquid	0.07906 ± 0.011	–
3903 kPa, Gas	–	0.0811 ± 0.0064
3903 kPa, Liquid	0.07632 ± 0.011	–
3904 kPa, Gas	–	0.08423 ± 0.0063
3904 kPa, Liquid	0.0735 ± 0.011	–
3905 kPa, Gas	–	0.08726 ± 0.0062
3905 kPa, Liquid	0.07087 ± 0.0048	–
3906 kPa, Gas	–	0.09038 ± 0.0062
3906 kPa, Liquid	0.06861 ± 0.011	–
3907 kPa, Gas	–	0.09365 ± 0.0062
3907 kPa, Liquid	0.06633 ± 0.01	–
3908 kPa, Gas	–	0.09697 ± 0.0063
3908 kPa, Liquid	0.06424 ± 0.01	–
3909 kPa, Gas	–	0.1001 ± 0.0064
3909 kPa, Liquid	0.06367 ± 0.0043	–
3910 kPa, Gas	–	0.1033 ± 0.0065
3910 kPa, Liquid	0.06367 ± 0.01	–
3911 kPa, Gas	–	0.1068 ± 0.0067
3911 kPa, Liquid	0.06367 ± 0.01	–
3912 kPa, Gas	–	0.1099 ± 0.0069
3912 kPa, Liquid	0.06367 ± 0.0096	–
3913 kPa, Gas	–	0.1132 ± 0.007
3913 kPa, Liquid	0.06367 ± 0.0096	–
3914 kPa, Gas	–	0.1164 ± 0.0072
3914 kPa, Liquid	0.06367 ± 0.0042	–
3915 kPa, Gas	–	0.1201 ± 0.0075
3915 kPa, Liquid	0.0637 ± 0.0095	–
3916 kPa, Gas	–	0.1234 ± 0.0077
3917 kPa, Gas	–	0.1273 ± 0.0079
3918 kPa, Gas	–	0.1307 ± 0.0099
3919 kPa, Gas	–	0.1341 ± 0.01
3920 kPa, Gas	–	0.1379 ± 0.01
3920 kPa, Liquid	0.06366 ± 0.0089	–
3921 kPa, Gas	–	0.1413 ± 0.01
3922 kPa, Gas	–	0.1454 ± 0.011
3923 kPa, Gas	–	0.149 ± 0.011
3924 kPa, Gas	–	0.1527 ± 0.011
3925 kPa, Gas	–	0.1565 ± 0.011
3925 kPa, Liquid	0.06366 ± 0.0086	–
3926 kPa, Gas	–	0.1605 ± 0.012
3927 kPa, Gas	–	0.1644 ± 0.012
3928 kPa, Gas	–	0.1684 ± 0.012
3929 kPa, Gas	–	0.1724 ± 0.012
3930 kPa, Gas	–	0.1763 ± 0.013
3930 kPa, Liquid	0.06362 ± 0.0083	–
3931 kPa, Gas	–	0.1804 ± 0.013
3932 kPa, Gas	–	0.1846 ± 0.013
3933 kPa, Gas	–	0.1886 ± 0.013
3934 kPa, Gas	–	0.1932 ± 0.014
3935 kPa, Gas	–	0.1972 ± 0.014
3935 kPa, Liquid	0.06364 ± 0.0083	–
3936 kPa, Gas	–	0.2015 ± 0.014
3937 kPa, Gas	–	0.2059 ± 0.015
3938 kPa, Gas	–	0.2104 ± 0.015
3939 kPa, Gas	–	0.2148 ± 0.015
3940 kPa, Gas	–	0.2193 ± 0.016
3940 kPa, Liquid	0.06364 ± 0.0084	–
3941 kPa, Gas	–	0.2241 ± 0.016
3942 kPa, Gas	–	0.229 ± 0.016
3943 kPa, Gas	–	0.2336 ± 0.016
3944 kPa, Gas	–	0.2401 ± 0.017
3945 kPa, Liquid	0.06362 ± 0.0085	0.2612 ± 0.019
3946 kPa, Liquid	–	0.2502 ± 0.019
3947 kPa, Liquid	–	0.2373 ± 0.018
3948 kPa, Liquid	–	0.224 ± 0.016
3949 kPa, Liquid	–	0.2125 ± 0.016
3950 kPa, Liquid	0.06362 ± 0.0066	0.2005 ± 0.015
3951 kPa, Liquid	–	0.1903 ± 0.014
3952 kPa, Liquid	–	0.1805 ± 0.013
3953 kPa, Liquid	–	0.1711 ± 0.012
3954 kPa, Liquid	–	0.1622 ± 0.012
3955 kPa, Liquid	0.06362 ± 0.0053	0.1544 ± 0.011
3956 kPa, Liquid	–	0.1467 ± 0.011
3957 kPa, Liquid	–	0.1394 ± 0.012
3958 kPa, Liquid	–	0.1335 ± 0.011
3959 kPa, Liquid	–	0.1273 ± 0.011
3960 kPa, Liquid	0.06362 ± 0.0047	0.1217 ± 0.011
3961 kPa, Liquid	–	0.1164 ± 0.01
3962 kPa, Liquid	–	0.1139 ± 0.01
3963 kPa, Liquid	–	0.1116 ± 0.0098
3964 kPa, Liquid	–	0.1094 ± 0.0098
3965 kPa, Liquid	0.06362 ± 0.0044	0.1072 ± 0.0097
3966 kPa, Liquid	–	0.1052 ± 0.0097
3967 kPa, Liquid	–	0.1032 ± 0.0097
3968 kPa, Liquid	–	0.1013 ± 0.0093
3969 kPa, Liquid	–	0.09939 ± 0.0091
3970 kPa, Liquid	0.06362 ± 0.0043	0.09778 ± 0.0091
3971 kPa, Liquid	–	0.09605 ± 0.0091
3972 kPa, Liquid	–	0.09456 ± 0.009
3973 kPa, Liquid	–	0.09289 ± 0.0087
3974 kPa, Liquid	–	0.09145 ± 0.0087
3975 kPa, Liquid	0.0636 ± 0.0043	0.09005 ± 0.0087
3976 kPa, Liquid	–	0.08869 ± 0.0087
3977 kPa, Liquid	–	0.08737 ± 0.0086
3980 kPa, Liquid	0.0636 ± 0.0042	–
4000 kPa, Liquid	0.06363 ± 0.0042	–
4020 kPa, Liquid	0.06367 ± 0.0041	–
4040 kPa, Liquid	0.06367 ± 0.0041	–
4060 kPa, Liquid	0.06371 ± 0.0042	–
4080 kPa, Liquid	0.06377 ± 0.0042	–
4100 kPa, Liquid	0.06381 ± 0.0042	–
4120 kPa, Liquid	0.06385 ± 0.0042	–
4140 kPa, Liquid	0.06391 ± 0.0042	–
4160 kPa, Liquid	0.06398 ± 0.0042	–
4180 kPa, Liquid	0.06404 ± 0.0042	–
4200 kPa, Liquid	0.06412 ± 0.0042	–
4220 kPa, Liquid	0.06418 ± 0.0042	–
4240 kPa, Liquid	0.06424 ± 0.0042	–
4260 kPa, Liquid	0.06432 ± 0.0042	–
4280 kPa, Liquid	0.06439 ± 0.0042	–
4300 kPa, Liquid	0.06445 ± 0.0042	–
4349 kPa, Liquid	0.06465 ± 0.0042	–
4364 kPa, Liquid	0.06469 ± 0.0042	–
4372 kPa, Liquid	0.06473 ± 0.0042	–
4380 kPa, Liquid	0.06475 ± 0.0042	–
4388 kPa, Liquid	0.06475 ± 0.0042	–
